Assay in all cases: Holoreceptor transactivation assay
What all share (assay type): cell-based

For one test, the target named is T1, RXRα (Homo sapiens, UniProt P19793).
T1 construct: expressed in transfected cells; host or cells: CV1 cells
T1 sequence (P19793 1-462): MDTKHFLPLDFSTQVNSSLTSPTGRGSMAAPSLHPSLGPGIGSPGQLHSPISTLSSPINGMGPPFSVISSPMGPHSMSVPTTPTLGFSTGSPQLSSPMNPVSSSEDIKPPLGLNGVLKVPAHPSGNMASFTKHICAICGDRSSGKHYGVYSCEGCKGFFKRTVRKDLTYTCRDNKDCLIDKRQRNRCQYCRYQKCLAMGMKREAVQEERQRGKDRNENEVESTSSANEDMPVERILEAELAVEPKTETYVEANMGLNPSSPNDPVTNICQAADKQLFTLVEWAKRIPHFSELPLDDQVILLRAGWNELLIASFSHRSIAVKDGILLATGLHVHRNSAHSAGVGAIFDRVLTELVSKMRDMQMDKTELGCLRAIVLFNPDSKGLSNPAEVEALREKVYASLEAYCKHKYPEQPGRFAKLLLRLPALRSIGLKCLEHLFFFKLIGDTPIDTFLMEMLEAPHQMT
Conditions: relative to all trans retinoic acid; read-out: Transactivation Assay Efficacy (% of RA activity) RXRα. The source says:
(§1) A holoreceptor transactivation assay and a ligand binding assay which measure the antagonist/agonist like activity of the compounds of the invention, or their ability to bind to the several retinoid receptor subtypes, respectively, are described in published PCT Application No. WO93/11755 (particularly on pages 30-33 and 37-41) published on Jun. 24, 1993, the specification of which is also incorporated herein by reference. A description of the holoreceptor transactivation assay is also provided below.
(§2) CV1 cells (5,000 cells/well) were transfected with an RAR reporter plasmid MTV-TREp-LUC (50 ng) along with one of the RAR expression vectors (10 ng) in an automated 96-well format by the calcium phosphate procedure of Heyman et al. Cell 68: 397-406. For RXR-α and RXR-γ transactivation assays, an RXR-responsive reporter plasmid CRBPII-tk-LUC (50 ng) along with the appropriate RXR expression vectors (10 ng) was used substantially as described by Heyman et al. above, and Allegretto et al. J. Biol. Chem. 268: 26625-26633. For RXR-β transactivation assays, an RXR-responsive reporter plasmid CPRE-tk-LUC ([…]) along with RXR-β expression vector ([…]) was used as described in above. These reporters contain DRI elements from human CRBPII and certain DRI elements from promotor, respectively (see Mangelsdorf et al. The Retinoids: Biology Chemistry and Medicine, pp. 319-349, Raven Press Ltd., New York and Heyman et al., cited above). A β-galactosidase (50 ng) expression vector was used as an internal control in the transfections to normalize for variations in transfection efficiency. The cells were transfected in triplicate for 6 hours, followed by incubation with retinoids for 36 hours, and the extracts were assayed for luciferase and […] activities. The detailed experimental procedure for holoreceptor transactivations has been described in Heyman et al. above, and Allegretto et al. cited above. The results obtained in this assay are expressed in EC50 numbers, as they are also in the chimeric receptor transactivation assay. The Heyman et al. Cell 68: 397-406, Allegretto et al. J. Biol. Chem. 268: 26625-26633, and Mangelsdorf et al. The Retinoids: Biology, Chemistry, and Medicine, pp. 319-349, Raven Press Ltd., New York, are expressly incorporated herein by reference. The results of ligand binding assay are expressed in Kd numbers. (See Cheng et al. Biochemical Pharmacology 22: 3099-3108, expressly incorporated herein by reference.)

For another test, the system named is RXRβ. The following applies: relative to all trans retinoic acid.
Excerpt: as §1, §2

A further test concerns the target T2, RXRγ (Mus musculus, UniProt P28705).
T2 construct: expressed in transfected cells; host or cells: CV1 cells
T2 sequence (P28705 1-463): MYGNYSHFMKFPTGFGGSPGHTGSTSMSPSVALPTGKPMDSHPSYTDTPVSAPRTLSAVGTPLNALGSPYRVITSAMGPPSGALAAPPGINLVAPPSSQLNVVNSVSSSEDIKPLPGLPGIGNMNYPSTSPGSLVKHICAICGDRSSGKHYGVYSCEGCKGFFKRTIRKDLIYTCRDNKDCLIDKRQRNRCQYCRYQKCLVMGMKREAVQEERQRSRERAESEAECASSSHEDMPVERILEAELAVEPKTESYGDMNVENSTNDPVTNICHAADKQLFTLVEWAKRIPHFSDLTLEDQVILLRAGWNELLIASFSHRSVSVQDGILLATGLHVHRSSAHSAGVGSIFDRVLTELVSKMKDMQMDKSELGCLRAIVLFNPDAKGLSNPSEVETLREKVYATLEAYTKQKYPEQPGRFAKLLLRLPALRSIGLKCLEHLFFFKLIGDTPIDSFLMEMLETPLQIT
Conditions: relative to all trans retinoic acid; read-out: Transactivation Assay Efficacy (% of RA activity) RXRγ.
Excerpt: as §1, §2

Another test addresses T3, RARβ (Homo sapiens, UniProt P10826).
T3 sequence (P10826 1-448 isoform P10826-2): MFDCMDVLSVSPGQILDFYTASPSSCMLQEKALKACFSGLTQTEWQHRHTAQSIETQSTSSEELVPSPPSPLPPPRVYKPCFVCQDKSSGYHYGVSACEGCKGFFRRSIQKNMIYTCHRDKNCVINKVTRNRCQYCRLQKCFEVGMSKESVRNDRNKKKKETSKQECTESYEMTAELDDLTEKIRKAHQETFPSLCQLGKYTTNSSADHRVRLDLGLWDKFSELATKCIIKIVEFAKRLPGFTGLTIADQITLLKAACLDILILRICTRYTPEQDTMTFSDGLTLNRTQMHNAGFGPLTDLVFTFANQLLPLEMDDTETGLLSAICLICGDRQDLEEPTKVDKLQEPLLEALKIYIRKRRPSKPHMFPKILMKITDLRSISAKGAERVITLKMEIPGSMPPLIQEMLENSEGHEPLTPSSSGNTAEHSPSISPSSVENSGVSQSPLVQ
The arrangement: expressed in transfected cells; host or cells: CV1 cells. The following applies: relative to all trans retinoic acid; read-out: Transactivation Assay Efficacy (% of RA activity) RARβ.
Excerpt: as §1, §2
A compound should not cause significant activation of a reporter gene through a given receptor subtype (RAR-α, RAR-β or RAR-γ) in the holoreceptor transactivation assay, in order to qualify as an RAR antagonist with utility in the present invention.

Turning to `Cc1ccc(C2=CCC(C)(C)c3ccc(C(=O)Nc4ccc(C(=O)O)c(F)c4)cc32)cc1` [Compound 41, 2-Fluoro-4-[[(5,6-dihydro-5,5-dimethyl-8-(4methylphenyl)-2-naphthalenyl)carbonyl]amino]-benzoic acid], the Emax was determined as 1% at RXRα, 3% on RXRγ and 5% on RARβ. The “Transactivation Assay Efficacy (% of RA activity) RXRβ” value with RXRβ is 0.00 % of RA activity.
`CC1(C)CC=C(c2cccc(O)c2)c2cc(C#Cc3ccc(C(=O)O)cc3)ccc21` [Compound 28, 4-[(5,6-Dihydro5,5-dimethyl-8-(3-hydroxyphenyl)-2-naphthalenyl)ethynyl]benzoic acid]: the Emax at RXRα came to 2%; at RXRγ, 3%; on RARβ it was 10%. The “Transactivation Assay Efficacy (% of RA activity) RXRβ” value with RXRβ is 0.00 % of RA activity.
With `Cc1cnc(C2=CCC(C)(C)c3ccc(C#Cc4ccc(C(=O)O)cc4)cc32)s1` [Compound 30, 4-[(5,6-Dihydro-5,5-dimethyl-8-(5-methylthiazol-2-yl)-2-naphthalenyl)ethynyl]benzoic acid], the results for the Emax on RXRα, on RXRγ and on RARβ were 0%, 3% and 5%, respectively. In addition, in the test on RXRβ, the “Transactivation Assay Efficacy (% of RA activity) RXRβ” value is 9.00 % of RA activity.
Take `Cc1cc(C)cc(C2=CCC(C)(C)c3ccc(C#Cc4ccc(C(=O)O)cc4)cc32)c1` [Compound 24, 4-[(5 6-Dihydro-5,5-dimethyl-8-(3,5-dimethylphenyl)-2-naphthalenyl)ethynyl]benzoic acid]: the Emax on RXRα amounted to 1%; at RXRγ, 3%; at RARβ, 7%. The “Transactivation Assay Efficacy (% of RA activity) RXRβ” value in the test with RXRβ is listed as 0.00 % of RA activity.
For `Cc1cccc(C2=CCC(C)(C)c3ccc(C#Cc4ccc(C(=O)O)cc4)cc32)c1` [Compound 20, 4-[(5,6-Dihydro-5,5-dimethyl-8-(3-methylphenyl)-2-naphthalenyl)ethynyl]benzoic acid], the Emax worked out at 4% on RXRα, 3% at RXRγ and 4% at RARβ. The “Transactivation Assay Efficacy (% of RA activity) RXRβ” value in the test with RXRβ is on record as 0.00 % of RA activity.
Turning to `CC1(C)CC=C(c2cccnc2)c2cc(C#Cc3ccc(C(=O)O)cc3)ccc21` [Compound 26, 4-[(5,6-Dihydro-5,5-dimethyl-8-(3-pyridyl)-2-naphthalenyl)ethynyl]benzoic acid], the Emax at RXRα stood at 2%; on RXRγ, 3%; on RARβ it was 6%. For the same compound, the “Transactivation Assay Efficacy (% of RA activity) RXRβ” value in the test on RXRβ was 0.00 % of RA activity.
Take `CC(/C=C/C=C(\C)c1ccc2c(c1)C(c1ccc(C)cc1)=CCC2(C)C)=C\C(=O)O` [Compound 52, (E,E,E)-3-methyl-7-(5,6-dihydro-5,5-dimethyl-8-(4-methylphenyl)-2-naphthalenyl)-2,4,6-octatrienoic acid]: the Emax on RXRα came out at 0%; on RXRγ, 10%; on RARβ, 15%. The “Transactivation Assay Efficacy (% of RA activity) RXRβ” value in the test on RXRβ was 0.00 % of RA activity.
With `Cc1ccc(C2=CCC(C)(C)c3ccc(C#Cc4ccc(C(=O)O)cc4)cc32)cn1` [Compound 18, 4-[(5,6-Dihydro-5,5-dimethyl-8-(2-methyl-5-pyridyl)-2-naphthalenyl)ethynyl]benzoic acid], the values for the Emax at RXRα, at RXRγ and on RARβ were 2%, 1% and 1%, respectively. In addition, in the test with RXRβ, the “Transactivation Assay Efficacy (% of RA activity) RXRβ” value is given as 10.00 % of RA activity.
For `Cc1ccc(C2=CCC(C)(C)c3cc(C(=O)C=Cc4ccc(C(=O)O)cc4)ccc32)cc1` [Compound 101, 4-[3-oxo-3-(7,8-dihydro-5-(4-methylphenyl)-8,8-dimethyl-2-naphthalenyl)-1-propenyl]-benzoic acid], the Emax was found to be 1% on RXRα, 3% on RXRγ and 4% on RARβ. For the same compound, the “Transactivation Assay Efficacy (% of RA activity) RXRβ” value in the test on RXRβ was 0.00 % of RA activity.
In the case of `CC1(C)CC=C(c2ccc(Cl)cc2)c2cc(C#Cc3ccc(C(=O)O)cc3)ccc21` [Compound 25, 4-[(5,6-Dihydro-5,5-dimethyl-8-(4-chlorophenyl)-2-naphthalenyl)ethynyl]benzoic acid], the Emax at RXRα was determined as 5%; on RXRγ it was 3%; on RARβ it was 3%. Moreover, in the test with RXRβ, the “Transactivation Assay Efficacy (% of RA activity) RXRβ” value was 0.00 % of RA activity.
Regarding `Cc1ccc(C2=CCC(C)(C)c3ccc(N=Nc4ccc(C(=O)O)cc4)cc32)cc1` [Compound 46b, 4-[(5,6-dihydro-5,5-dimethyl-8-(4-methylphenyl)-2-naphthalenyl)azo]-benzoic acid], the Emax on RXRα came to 2%; on RXRγ, 4%; on RARβ it was 5%. The “Transactivation Assay Efficacy (% of RA activity) RXRβ” value in the test with RXRβ is recorded as 0.00 % of RA activity.
Turning to `Cc1ccc(C2=CCC(C)(C)c3ccc(/C=C/c4ccc(C(=O)O)cc4)cc32)cc1` [Compound 45], the Emax worked out at 3% at RXRα, 0% on RXRγ and 0% on RARβ. The “Transactivation Assay Efficacy (% of RA activity) RXRβ” value with RXRβ is 8.00 % of RA activity.
In the case of `Cc1ccc(C2=CCC(C)(C)c3ccc(C#Cc4ccc(C(=O)O)cc4)cc32)cc1` [Compound 60, 4-[(5,6-dihydro-5,5-dimethyl-8-(4-methylphenyl)-2-naphthalenyl)ethynyl]benzoic acid], the figures for the Emax at RXRα, on RXRγ and on RARβ were 3%, 3% and 1%, respectively. Further, the “Transactivation Assay Efficacy (% of RA activity) RXRβ” value in the test with RXRβ was 0.00 % of RA activity.

Values taken from patent US6469028B1, “Synthesis and use of retinoid compounds having negative hormone and/or anatgonist activities” (Allergan, Inc., priority 1995, dated 2002).
